The record followed here is patent US12653186B2, “[(1-phenyl-5-(heteroaryl)-1H-1,2,4-triazol-3-yl)oxy] acetic acid derivatives as safeners for the protection of useful plants and crop plants” (BAYER AKTIENGESELLSCHAFT, priority 2020, dated 2026).

One experiment has as its system summer barley (HORVS). The experiment in a line: Reduction of damage by mesosulfuron-methyl on summer barley (safener action, greenhouse, post-emergence). In kind it is in vivo, summer barley (HORVS; cv. Montoya). Also on record: key: 0: no reduction in damage (appearance corresponding to the herbicide control); 1: slight reduction in damage; 2: distinct reduction in damage; 3: significant reduction in damage; 4: complete reduction in damage (appearance corresponding to the untreated control). Particulars: then mesosulfuron-methyl 40-60 g/ha, visual assessment 9-13 days after application, 2 repeats. As to the method:
(§1) 2.2 Relative Action of Selected Compounds of the Invention Using the Example of Reduction of Damage by Mesosulfuron-Methyl on Summer Barley (HORVS) The seeds of the crop plants to be treated are laid out in sandy loam in plastic pots (diameter ˜4 cm), covered with soil and grown in a greenhouse under good conditions for germination and growth. The trial plants were treated at the early leaf stage (BBCH10-BBCH12). In the course of this, the inventive compounds of the general formula (I) formulated in the form of wettable powders (WP) were sprayed onto the above-ground parts of the plants as an aqueous suspension with a water application rate corresponding to 800 l/ha with addition of wetting agent (e.g. 0.2% Genapol-LRO or 0.2% Mero) in the specified dose. This was followed by the application of the herbicide. For this purpose, mesosulfuron-methyl, formulated in the form of water-dispersible granules (WG), was sprayed onto the above-ground parts of the plants in the form of an aqueous dispersion with a water application rate corresponding to 800 l/ha with addition of wetting agent (e.g. 0.2% Genapol-LRO or 1 l/ha Biopower) in a dose of 40-60 g/ha. The dose of the herbicide was chosen here such that it causes visually apparent damage (min. 30%, max. 75%) compared to untreated crop plants at the evaluation time on a control group of crop plants without safener treatment that were included in the same trial. After application, the plants were cultivated under good growth conditions in a greenhouse. 9-13 days after application, the efficacy of the test compounds was assessed visually. For this purpose, the appearance of the plants treated with the test compound and herbicide was compared to the corresponding herbicide controls (without safener; with clearly visible damage) and the untreated controls (without damage). The damage-reducing effect of the test compounds was expressed here separately for 2 repeats in graded efficacy codes according to the following scheme: • 0: no reduction in damage (appearance corresponding to the herbicide control) • 1: slight reduction in damage • 2: distinct reduction in damage • 3: significant reduction in damage • 4: complete reduction in damage (appearance corresponding to the untreated control) The trials show clear efficacy of the inventive compounds selected by way of example with regard to the reduction in damage to the summer barley crop plant (HORVS; cv. Montoya) caused by the herbicide mesosulfuron-methyl: […]

Another experiment deals with summer wheat (TRZAS). Kind of experiment: Reduction of damage by mesosulfuron-methyl on summer wheat (safener action, greenhouse, post-emergence). In kind it is in vivo, summer wheat (TRZAS; cv. Triso). Also on record: key: 0: no reduction in damage (appearance corresponding to the herbicide control); 1: slight reduction in damage; 2: distinct reduction in damage; 3: significant reduction in damage; 4: complete reduction in damage (appearance corresponding to the untreated control). The note with it: then mesosulfuron-methyl 40-60 g/ha, visual assessment 9-13 days after application. As to the method:
as §1, with “2.1” for “2.2”, “Wheat (TRZAS)” for “Barley (HORVS)”, “here” for “here separately for 2 repeats”, “wheat” for “barley”, “(TRZAS;” for “(HORVS;”, “Triso)” for “Montoya)”

As for `COC(=O)COc1nc(-c2ccc(Cl)cn2)n(-c2ccc(F)cc2F)n1` [I.28-38, Methyl {[5-(5-chloropyridin-2-yl)-1-(2,4-difluorophenyl)-1H-1,2,4-triazol-3-yl]oxy}acetate], the “Efficacy of the safener (efficacy code)” value in the experiment on summer barley (HORVS) (safener 100 g/ha) was determined as 2.

Regarding `COC(=O)COc1nc(-c2ccc(Cl)cn2)n(-c2ccc(Cl)cc2F)n1` [I.28-49], the “Efficacy of the safener (efficacy code)” value with summer barley (HORVS) (safener 100 g/ha) and in the experiment with summer wheat (TRZAS) (safener 100 g/ha) was 2 in each case.

`CCOC(=O)COc1nc(-c2ccc(Cl)cn2)n(-c2ccccc2F)n1` [I.29-2]: the “Efficacy of the safener (efficacy code)” value in the experiment on summer wheat (TRZAS) (safener 100 g/ha) turned out to be 2.

`CCOC(=O)COc1nc(-c2ccc(Cl)cn2)n(-c2ccc(F)cc2F)n1` [I.29-38]: the “Efficacy of the safener (efficacy code)” value with summer barley (HORVS) (safener 100 g/ha) and in the experiment with summer wheat (TRZAS) (safener 100 g/ha) was 2 in each case.

As to `O=C(O)COc1nc(-c2ccc(Cl)cn2)n(-c2ccc(F)cc2F)n1` [I.30-38, {[5-(5-Chloropyridin-2-yl)-1-(2,4-difluorophenyl)-1H-1,2,4-triazol-3-yl]oxy}acetic acid], the “Efficacy of the safener (efficacy code)” value with summer barley (HORVS) (safener 100 g/ha) and with summer wheat (TRZAS) (safener 100 g/ha) was 2 in each case.

For the compound `COC(=O)COc1nc(-c2ccc(F)cn2)n(-c2ccc(Cl)cc2)n1` [I.31-7], the “Efficacy of the safener (efficacy code)” value with summer barley (HORVS) (safener 100 g/ha) and in the experiment with summer wheat (TRZAS) (safener 100 g/ha) was 2 throughout.

With `COC(=O)COc1nc(-c2ccc(F)cn2)n(-c2ccc(F)cc2F)n1` [I.31-38], the “Efficacy of the safener (efficacy code)” value with summer wheat (TRZAS) (safener 100 g/ha) was 2.

With `COC(=O)COc1nc(-c2ccc(F)cn2)n(-c2ccc(F)cc2Cl)n1` [I.31-48], the “Efficacy of the safener (efficacy code)” value in the experiment with summer barley (HORVS) (safener 100 g/ha) and in the experiment with summer wheat (TRZAS) (safener 100 g/ha) was 2 each time.

Consider `COC(=O)COc1nc(-c2ccc(F)cn2)n(-c2ccc(Cl)cc2F)n1` [I.31-49], for which the “Efficacy of the safener (efficacy code)” value with summer barley (HORVS) (safener 100 g/ha) and in the experiment on summer wheat (TRZAS) (safener 100 g/ha) was 2 in each case.

Take `CCOC(=O)COc1nc(-c2ccc(F)cn2)n(-c2ccccc2F)n1` [I.32-2]: in the experiment on summer wheat (TRZAS) (safener 100 g/ha), the “Efficacy of the safener (efficacy code)” value is recorded as 2.

Consider `CCOC(=O)COc1nc(-c2ccc(F)cn2)n(-c2ccc(F)cc2)n1` [I.32-4], for which the “Efficacy of the safener (efficacy code)” value in the experiment with summer wheat (TRZAS) (safener 100 g/ha) turned out to be 2.

As for `CCOC(=O)COc1nc(-c2ccc(F)cn2)n(-c2ccc(Cl)cc2)n1` [I.32-7], the figures for the “Efficacy of the safener (efficacy code)” value in the experiment on summer barley (HORVS) (safener 100 g/ha) and in the experiment with summer wheat (TRZAS) (safener 100 g/ha) were 2-3 and 2, respectively.

As for `CCOC(=O)COc1nc(-c2ccc(F)cn2)n(-c2ccc(F)cc2F)n1` [I.32-38], the “Efficacy of the safener (efficacy code)” value in the experiment on summer barley (HORVS) (safener 100 g/ha) and in the experiment with summer wheat (TRZAS) (safener 100 g/ha) was 2 each time.

Regarding `CCOC(=O)COc1nc(-c2ccc(F)cn2)n(-c2ccc(Cl)cc2F)n1` [I.32-49], the “Efficacy of the safener (efficacy code)” value in the experiment on summer barley (HORVS) (safener 100 g/ha) and in the experiment with summer wheat (TRZAS) (safener 100 g/ha) was 2 throughout.

In the case of `O=C(O)COc1nc(-c2ccc(F)cn2)n(-c2ccc(F)cc2)n1` [I.33-4], the “Efficacy of the safener (efficacy code)” value with summer wheat (TRZAS) (safener 100 g/ha) stood at 2.

On to `O=C(O)COc1nc(-c2ccc(F)cn2)n(-c2ccc(Cl)cc2F)n1` [I.33-49], for which the “Efficacy of the safener (efficacy code)” value with summer wheat (TRZAS) (safener 100 g/ha) worked out at 2.

Take `COC(=O)COc1nc(-c2ccncc2Cl)n(-c2ccc(Cl)cc2F)n1` [I.43-49]: the “Efficacy of the safener (efficacy code)” value in the experiment with summer barley (HORVS) (safener 100 g/ha) worked out at 2.

With `COC(=O)COc1nc(-c2ncccc2F)n(-c2ccccc2)n1` [I.64-1], the “Efficacy of the safener (efficacy code)” value in the experiment on summer barley (HORVS) (safener 500 g/ha), in the experiment with summer wheat (TRZAS) (safener 100 g/ha) and in the experiment with summer wheat (TRZAS) (safener 500 g/ha) was 2 in each case.

Turning to `COC(=O)COc1nc(-c2ncccc2F)n(-c2ccc(Cl)cc2F)n1` [I.64-49], the “Efficacy of the safener (efficacy code)” value with summer barley (HORVS) (safener 500 g/ha) and with summer wheat (TRZAS) (safener 500 g/ha) was 2 each time.

In the case of `COC(=O)CCOC(=O)COc1nc(-c2ccc(Cl)cn2)n(-c2ccc(F)cc2F)n1` [I.67-38], in the experiment on summer wheat (TRZAS) (safener 100 g/ha), the “Efficacy of the safener (efficacy code)” value is 2.

`O=C(COc1nc(-c2ccc(Cl)cn2)n(-c2ccc(F)cc2F)n1)OCC1CCCO1` (centres unmarked) [I.68-38]: the “Efficacy of the safener (efficacy code)” value in the experiment with summer barley (HORVS) (safener 100 g/ha) and in the experiment with summer wheat (TRZAS) (safener 100 g/ha) was 2 each time.

As to `O=C(COc1nc(-c2ccc(Cl)cn2)n(-c2ccc(F)cc2F)n1)OCC1CCOC1` (centres unmarked) [I.69-38], in the experiment on summer barley (HORVS) (safener 100 g/ha), the “Efficacy of the safener (efficacy code)” value is listed as 2-3.

For the compound `O=C(COc1nc(-c2ccc(Cl)cn2)n(-c2ccc(F)cc2F)n1)OCC1OCCO1` [I.70-38], in the experiment on summer barley (HORVS) (safener 100 g/ha), the “Efficacy of the safener (efficacy code)” value is given as 2.

With `COCCOC(=O)COc1nc(-c2ccc(Cl)cn2)n(-c2ccc(F)cc2F)n1` [I.73-38], the “Efficacy of the safener (efficacy code)” value in the experiment with summer barley (HORVS) (safener 100 g/ha) is listed as 2-3.

In the case of `O=C(COc1nc(-c2ccc(Cl)cn2)n(-c2ccc(F)cc2F)n1)OCC1CC1` [I.80-38, Cyclopropylmethyl {[5-(5-chloropyridin-2-yl)-1-(2,4-difluorophenyl)-1H-1,2,4-triazol-3-yl]oxy}acetate], the “Efficacy of the safener (efficacy code)” value with summer wheat (TRZAS) (safener 100 g/ha) came to 2.
